Data as given in patent publication US8680290B2, “Isoxazoline derivatives and their use as herbicides” (Syngenta Limited, priority 2004, dated 2014).

Columns and labels:
[1] = system: Monocotyledonous and dicotyledonous test plants; assay: Example B2 herbicidal action, application pre-emergence, 96-cell seed trays (Table B2b); assay type: in vivo; conditions: 1000 g/ha
Experimental: Monocotyledonous and dicotyledonous test plants were sown in sterilised standard soil in seed trays each having 96 cells. After one day (pre-emergence) or after 8 to 9 days cultivation (post-emergence) under controlled conditions in a climatic chamber (cultivation at 17/23° C.; 13 hours light; 50-60% humidity; after application at 19/24° C.), the plants were treated with an aqueous spray solution of 1000 mg/l of the active ingredient used (rate of application: […]; incl. 10% DMSO as solvent). The plants were grown on in the climatic chamber until the test was evaluated (10 total damage to plant, 0=no damage to plant) after 9 or 13 days.

[2] = system: Monocotyledonous and dicotyledonous test plants; assay: Example B1 herbicidal action, application pre-emergence (Table B1b); assay type: in vivo; conditions: 250 g/ha, evaluated after 4 weeks
Summary of the method: (§1)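 Visual damage rating, 10 = plant dead and 0 = unharmed, taken at 3 weeks for post-emergence and 4 weeks for pre-emergence treatment. Application by spray of formulated aqueous solution either immediately after sowing or at 8–9 days' growth, with mono- and dicot plants kept in a greenhouse.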

[3] = system: Monocotyledonous and dicotyledonous test plants; assay: Example B1 herbicidal action, application post-emergence (Table B1a); assay type: in vivo; conditions: 250 g/ha, evaluated after 3 weeks, scale 0-10
Summary of the method: as §1

SMILES | herbicidal action (damage rating 0-10), Agrostis [1] | herbicidal action (damage rating 0-10), Digitaria [1] | herbicidal action (damage rating 0-10), Poa [1] | herbicidal action (damage rating 0-10), Setaria [1] | herbicidal action (damage rating 0-10), Amaranthus [2] | herbicidal action (damage rating 0-10), Digitaria [2] | herbicidal action (damage rating 0-10), Panicum [2] | herbicidal action (damage rating 0-10), Setaria [2] | herbicidal action (damage rating 0-10), Sida [2] | melting point [°C] | herbicidal damage rating, Abutilon [3] | herbicidal damage rating, Amaranthus [3] | herbicidal damage rating, Digitaria [3] | herbicidal damage rating, Panicum [3] | herbicidal damage rating, Setaria [3] | herbicidal damage rating, Sida [3]
CC1(C)CC(S(=O)(=O)C(C)(Br)c2c(F)cccc2F)=NO1 (stereo not drawn) [1.37] | 10 | 9 | 10 | 9 | 0 | 9 | 9 | 9 | 5 | – | – | – | – | – | – | –
COc1cc(C(Cl)(Cl)S(=O)(=O)C2=NOC(C)(C)C2)on1 [Compound No. 5.02, 5-[dichloro-(5,5-dimethyl-4,5-dihydroisoxazole-3-sulfonyl)-methyl]-3-methoxy-isoxazole] | – | – | – | – | – | – | – | – | – | 118 | – | – | – | – | – | –
CC1(C)CC(S(=O)(=O)C(Cl)(CC=C(F)F)c2c(F)cccc2F)=NO1 (stereo not drawn) [Compound No. 1.17, 3-[1-chloro-1-(2,6-difluoro-phenyl)-4,4-difluoro-but-3-ene-1-sulfonyl]-5,5-dimethyl-4,5-dihydroisoxazole] | – | – | – | – | – | – | – | – | – | 113 | – | – | – | – | – | –
Cc1cccc(C(CC=C(F)F)S(=O)(=O)C2=NOC(C)(C)C2)c1 (stereo not drawn) [1.29] | 10 | 9 | 8 | 4 | 2 | 3 | 7 | 7 | 0 | – | – | – | – | – | – | –
Cc1c(Br)noc1C(F)(F)S(=O)(=O)C1=NOC(C)(C)C1 [Compound No. 5.06, 3-bromo-5-[(5,5-dimethyl-4,5-dihydroisoxazole-3-sulfonyl)-difluoro-methyl]-4-methyl-isoxazole] | – | – | – | – | – | – | – | – | – | 70 to 75 | – | – | – | – | – | –
CC1(C)CC(S(=O)(=O)C(C(=O)NC2CC2)c2c(F)cccc2F)=NO1 (stereo not drawn) [Compound No. 1.35, N-cyclopropyl-2-(2,6-difluoro-phenyl)-2-(5,5-dimethyl-4,5-dihydroisoxazole-3-sulfonyl)-acetamide] | – | – | – | – | – | – | – | – | – | 150 | – | – | – | – | – | –
C#CCC(c1c(F)cccc1F)S(=O)(=O)C1=NOC(C)(C)C1 (stereo not drawn) [Compound No. 1.02] | 8 | 9 | 5 | 9 | – | – | 6 | 3 | 0 | – | 0 | 9 | 6 | 10 | 7 | 5
CC1(C)CC(S(=O)(=O)C(c2c(F)cccc2F)S(=O)(=O)Cc2ccccc2)=NO1 (stereo not drawn) [1.39] | 10 | 5 | 10 | 3 | 3 | 7 | 7 | 3 | 0 | – | – | – | – | – | – | –
Cn1cc(C(F)(F)F)c(C(F)S(=O)(=O)C2=NOC(C)(C)C2)n1 (stereo not drawn) [Compound No. 4.04, 3-[fluoro-(1-methyl-4-trifluoromethyl-1H-pyrazol-3-yl)-methanesulfonyl]-5,5-dimethyl-4,5-dihydroisoxazole] | – | – | – | – | – | – | – | – | – | 117 to 118 | – | – | – | – | – | –
CC1(C)CC(S(=O)(=O)C(C)(Cl)c2c(F)cccc2F)=NO1 (stereo not drawn) [1.15] | 2 | 9 | 10 | 9 | 10 | 9 | 10 | 8 | 0 | – | – | – | – | – | – | –
Cn1nc(C(F)(F)F)c(C(F)S(=O)(=O)C2=NOC(C)(C)C2)c1OC1COC1 (stereo not drawn) [Compound No. 2.27, 3-{fluoro-[1-methyl-5-(oxetan-3-yloxy)-3-trifluoromethyl-1H-pyrazol-4-yl]-methanesulfonyl}-5,5-dimethyl-4,5-dihydroisoxazole] | – | – | – | – | – | – | – | – | – | 105 to 107 | – | – | – | – | – | –
CCOC(=O)CCC(c1c(F)cccc1F)S(=O)(=O)C1=NOC(C)(C)C1 (stereo not drawn) [Compound No. 1.08, 4-(2,6-difluoro-phenyl)-4-(5,5-dimethyl-4,5-dihydroisoxazole-3-sulfonyl)-butyric acid ethyl ester] | 7 | 8 | 9 | 3 | – | – | – | – | – | – | – | – | – | – | – | –
Cn1cc(C(F)(F)F)c(C(F)(F)S(=O)(=O)C2=NOC(C)(C)C2)n1 [Compound No. 4.05, 3-[difluoro-(1-methyl-4-trifluoromethyl-1H-pyrazol-3-yl)-methanesulfonyl]-5,5-dimethyl-4,5-dihydro-isoxazole] | – | – | – | – | – | – | – | – | – | 101 to 103 | – | – | – | – | – | –
CC1(C)CC([S+]([O-])C(Cl)c2c(F)cccc2F)=NO1 (mixture of isomers) [1.24] | 10 | 10 | 10 | 9 | 8 | 8 | 10 | 7 | 4 | – | – | – | 6 | 6 | 6 | –
CC1(C)CC(S(=O)(=O)C(F)(F)c2c(F)cccc2F)=NO1 [1.20] | 10 | 10 | 10 | 10 | 10 | 10 | 10 | 10 | 9 | – | 7 | 3 | 6 | 0 | 6 | 5
CC1(C)CC(S(=O)(=O)C(Cc2ccc(F)cc2)c2c(F)cccc2F)=NO1 (stereo not drawn) [Compound No. 1.05, 3-[1-(2,6-difluoro-phenyl)-2-(4-fluoro-phenyl)-ethanesulfonyl]-5,5-dimethyl-4,5-dihydroisoxazole] | – | – | – | – | – | – | – | – | – | 95 | – | – | – | – | – | –
Cn1nc(C(F)(F)F)c(C(F)S(=O)(=O)C2=NOC(C)(C)C2)c1Cl (stereo not drawn) [2.02] | 10 | 9 | 10 | 10 | – | – | – | – | – | – | – | – | – | – | – | –
COCC(=O)C(c1c(F)cccc1F)S(=O)(=O)C1=NOC(C)(C)C1 (stereo not drawn) [Compound No. 1.59] | 9 | 8 | 10 | 9 | – | – | – | – | – | – | – | – | – | – | – | –
CC1(C)CC(S(=O)(=O)C2(c3c(F)cccc3F)CC2)=NO1 [Compound No. 1.01, 3-[1-(2,6-difluoro-phenyl)-cyclopropanesulfonyl]-5,5-dimethyl-4,5-dihydroisoxazole] | 10 | 9 | 10 | 9 | 2 | 7 | 8 | 8 | 0 | – | – | – | – | – | – | –
Cc1noc(C2CC2)c1C(Cl)(Cl)S(=O)(=O)C1=NOC(C)(C)C1 [Compound No. 3.06, 5-cyclopropyl-4-[dichloro-(5,5-dimethyl-4,5-dihydroisoxazole-3-sulfonyl)methyl]-3-methyl-isoxazole] | – | – | – | – | – | – | – | – | – | 72 | – | – | – | – | – | –
COC(=O)C(Cl)(c1c(F)cccc1F)S(=O)(=O)C1=NOC(C)(C)C1 (stereo not drawn) [Compound No. 1.14, chloro-(2,6-difluorophenyl)-(5,5-dimethyl-4,5-dihydroisoxazole-3-sulfonyl)-acetic acid methyl ester] | 10 | 9 | 10 | 10 | 8 | 9 | 9 | 9 | 6 | – | 4 | – | 3 | 0 | 3 | 3
